Results on 30 compounds are retold here after patent US6410533B1, “Antibacterial compounds” (Genzyme Corporation, priority 2000, dated 2002).

In this test the test system is Staphylococcus aureus bacteria (ATCC 9604 SV). The experiment in a line: Minimal inhibitory concentration (MIC), broth microdilution. It counts as cell-based. To be noted: 24 h at 37° C. The protocol: Minimal inhibitory concentrations (MICs) for Staphylococcus aureus bacteria (ATCC 9604 SV) were determined by broth microdilution methodology following National Committee for Clinical Laboratory Standards. In the MIC determinations, the compounds were incorporated into Mueller-Hinton broth (Becton Dickinson Microbiology systems, Cockeyville, Md.) at a series of concentrations. After the test organism was grown overnight in TB broth, the broths were adjusted to the turbidity equivalent to 0.05 McFarland standard. The suspensions were diluted twenty-fold into the broth containing the compounds. […] In the IC50 determination, the method was modified to allow the rapid growth of the organisms. The inoculum suspensions were adjusted to 0.1 McFarland standard and then diluted two-fold into the wells containing TB broth and the compounds. After three to five hours incubation at 37° C., the turbidity was measured at 550 nm and inhibitory activity was defined as the concentration of antimicrobial agent that inhibits 50% growth of the organism in the microdilution wells.
Background: Broth dilution looks for growth in wells or tubes with falling amounts of substance.

Setting [1] is: Staphylococcus aureus ATCC 9604 SV.

≈ marks a conversion by molar mass, not a printed value. Where two headings read alike, the source gives them in different places.

Regarding `CC1(C)C(=O)N(c2cc(Cl)cc(Cl)c2)N=C1c1ccccc1` [Compound 4], the minimal inhibitory concentration (MIC) under setting [1] is >8.33 µg/mL.

Under setting [1], `CC1=NN(c2cc(Cl)cc(Cl)c2)C(=O)C1` [Compound 5] yielded an MIC of 6.08 µg/mL (≈ 25 µM).

As to `Cc1ccc(C2=NN(c3cc(Cl)cc(Cl)c3)C(=O)C2)cc1` [Compound 6], the MIC under setting [1] was >7.98 µg/mL. For the compound `O=C1CC(c2ccccc2F)=NN1c1cc(Cl)cc(Cl)c1` [Compound 7], the MIC under setting [1] was >8.08 µg/mL. For the compound `O=C1CC(C2CCCCC2)=NN1c1cc(Cl)cc(Cl)c1` [Compound 8], the MIC under setting [1] is >7.78 µg/mL. `CN(C)C=C1C(=O)N(c2cc(Cl)cc(Cl)c2)N=C1c1ccccc1` [Compound 9, 2-(3,5-Dichloro-phenyl)-4-dimethylaminomethylene-5-phenyl-2,4-dihydro-pyrazol-3-one]: the MIC (ATCC9604, Staphylococcus aureus ATCC 9604 SV, read-out: MIC) was > 9.01 µg/mL. In the case of `CC1=NN(c2cc(Cl)cc(Cl)c2)C(=O)C1C` (stereo not drawn) [Compound 11], the MIC under setting [1] was >6.43 µg/mL. For `O=C1C2CCCC2=NN1c1cc(Cl)cc(Cl)c1` (stereo not drawn) [Compound 12], the MIC under setting [1] is >6.73 µg/mL. Turning to `CC(C)C1=NN(c2cc(Cl)cc(Cl)c2)C(=O)C1` [Compound 13], the MIC under setting [1] is >6.78 µg/mL. In the case of `O=C1CC(C(F)(F)F)=NN1c1cc(Cl)cc(Cl)c1` [Compound 14], the MIC under setting [1] was determined as 3.56 µg/mL (≈ 12 µM).

As to `O=C1C2CCCCC2=NN1c1cc(Cl)cc(Cl)c1` (stereo not drawn) [Compound 18], the MIC under setting [1] was >7.08 µg/mL. As for `CCC1C(=O)N(c2cc(Cl)cc(Cl)c2)N=C1C` (stereo not drawn) [Compound 20], the minimum inhibitory concentration (MIC) under setting [1] is >6.78 µg/mL. In the case of `CC1=NN(c2cc(Cl)cc(Cl)c2)C(=O)C1Cc1ccccc1` (stereo not drawn) [Compound 21], under setting [1], the MIC is 8.33 µg/mL (≈ 25 µM). Regarding `O=C(C=C1C(=O)N(c2cc(Cl)cc(Cl)c2)N=C1c1ccccc1)c1ccccc1` [Compound 26], the minimal inhibitory concentration (MIC) under setting [1] was >12.5 µg/mL. Still for that read-out and setting: as for `CCN(CC)c1ccc(C=C2C(=O)N(c3cc(Cl)cc(Cl)c3)N=C2c2ccccc2)cc1` [Compound 27], the figure is >12.5 µg/mL; as for `CN(C)CCCOc1ccc(C=C2C(=O)N(c3cc(Cl)cc(Cl)c3)N=C2c2ccccc2)cc1` [Compound 28], >12.5 µg/mL.

In the case of `O=C1C(=Cc2ccccn2)C(c2ccccc2)=NN1c1cc(Cl)cc(Cl)c1` [Compound 29], under setting [1], the minimum inhibitory concentration (MIC) was 12.5 µg/mL (≈ 31.7 µM). The compound `Cn1cccc1C=C1C(=O)N(c2cc(Cl)cc(Cl)c2)N=C1c1ccccc1` [Compound 32] showed an MIC under setting [1] of 0.320 µg/mL (≈ 0.808 µM). Turning to `O=C1C(=Cc2ccco2)C(c2ccccc2)=NN1c1cc(Cl)cc(Cl)c1` [Compound 35], under setting [1], the minimal inhibitory concentration (MIC) was >12.5 µg/mL. On to `O=C1C(=Cc2cccs2)C(c2ccccc2)=NN1c1cc(Cl)cc(Cl)c1` [Compound 36], for which the MIC under setting [1] was 12.5 µg/mL (≈ 31.3 µM).

`O=C1C(=Cc2nccs2)C(c2ccccc2)=NN1c1cc(Cl)cc(Cl)c1` [Compound 37] returned an MIC under setting [1] of 12.5 µg/mL (≈ 31.2 µM). Compound `CSc1ccc(C=C2C(=O)N(c3cc(Cl)cc(Cl)c3)N=C2c2ccccc2)cc1` [Compound 38] displayed a minimum inhibitory concentration (MIC) under setting [1] of 6.25 µg/mL (≈ 14.2 µM). For `O=C1C(=Cc2c[nH]c3ccccc23)C(c2ccccc2)=NN1c1cc(Cl)cc(Cl)c1` [Compound 39], the MIC under setting [1] is >10.0 µg/mL. In the case of `CCOC(=O)N1CCC(=C2C(=O)N(c3cc(Cl)cc(Cl)c3)N=C2c2ccccc2)CC1` [Compound 41], the MIC under setting [1] worked out at 12.5 µg/mL (≈ 27.3 µM).

Turning to `Cn1cc(C=C2C(=O)N(c3cc(Cl)cc(Cl)c3)N=C2c2ccccc2)c2ccccc21` [Compound 43], the MIC under setting [1] stood at 0.400 µg/mL (≈ 0.896 µM). In turn, `COC(=O)c1ccccc1C=C1C(=O)N(c2cc(Cl)cc(Cl)c2)N=C1c1ccccc1` [Compound 44] displayed an MIC under setting [1] of 12.5 µg/mL (≈ 27.7 µM).

Turning to `O=C1CC(c2ccccc2)=NN1c1cc(C(F)(F)F)cc(C(F)(F)F)c1` [Compound 47], the MIC under setting [1] was 2.33 µg/mL (≈ 6.26 µM). `O=C1CC(c2ccccn2)=NN1c1cc(Cl)cc(Cl)c1` [Compound 48]: the MIC under setting [1] was >7.65 µg/mL.

On to `O=C1CC(c2cccnc2)=NN1c1cc(Cl)cc(Cl)c1` [Compound 53], for which the minimal inhibitory concentration (MIC) under setting [1] is 7.65 µg/mL (≈ 25 µM). With `CCC1=NN(c2cc(Cl)cc(Cl)c2)C(=O)C1=NO` [Compound 60], the MIC under setting [1] amounted to 7.15 µg/mL (≈ 25 µM).

What is called MIC is the least concentration at which growth counts as inhibited.
